Laboratory results from patent publication US20240271102A1, “METHODS FOR ENGINEERING AND USE OF CILIATED ORGANOIDS HAVING NATIVE-LIKE, APICAL-OUT POLARITY” (Carnegie Mellon University, priority 2021, published 2024).

Key:
Assay type in all cases: cell-based, human
[1] = test system: apical-out airway organoids (AOAOs); experiment: AOAO rotation / angular velocity of […]-embedded organoids (computer vision tracking)
Protocol: © embedding of AOAOs: Mature AOAOs at day-21 to day-28 of differentiation were collected together and embedded in […]® matrices. For […]® embedding, collected AOAOs were resuspended in 40% (vol/vol) GFR-[…]® in differentiation medium, which was kept on a heat plate set to 37° C. for 10 minutes to enable effective gelation. Upon matrix gelation, differentiation medium was added to the top of the AOAO-containing gel matrices. All matrix-embedded AOAOs were maintained at 37° C. with 5% CO2. The next day, 30-second video recordings of AOAOs were captured using EVOS FL Auto 2 Imaging System. […] The distance covered by each correspondence was measured and converted to the rotational velocity (Sun et al., in 2010 IEEE Computer Society Conference on Computer Vision and Pattern Recognition, 2432-2439, 2010). […] The difference in rotational and angular velocity was quantified by calculating the mean normalized deviation of velocity (rotational and angular) from the mean (FIG. 19E) using the following equation: Treating AOAOs with Paclitaxel or EHNA for angular velocity analysis: Mature AOAOs (day-21 to day-28 of differentiation) were embedded in […]® for two days before treatment with desired chemical inhibitors of cilia motility. […]

[2] = test system: apical-out airway organoids (AOAOs); experiment: Cilia beating frequency (CBF) by kymograph analysis
Protocol: Imaging the AOAO cilia beating for kymographs generation and cilia beating frequency (CBF) calculation: Mature AOAOs (day-21 to day-28 of differentiation) were transferred to a 1.5-mL Eppendorf tube and kept on ice. Cold collagen type 1 was neutralized with the neutralization solution, added to the organoids at a final concentration of 2 mg/mL, and the entire AOAO-collagen mixture was transferred to the glass bottom region of a MatTek dish. The MatTek dish containing organoids in collagen was kept on ice for additional 10 minutes until the organoids settled down to the bottom of the dish. The MatTek dish was then placed on a heat plate set to 37° C. for 10 minutes. 1 mL of differentiation medium was placed in the dish before capturing video recording of cilia beating using on a Zeiss AxioObserver Z1 microscope with a 100×, 1.45 NA objective and pco.edge 5.5 camera. The high-speed video recordings of cilia beating were preprocessed using the previously described method to smoothen noise and variations in contrast. Additionally, the Contrast Limited Adaptive Histogram Equalization (CLAHE) function in Python v. […] The normal vector with respect to the organoid surface for each region of interest was calculated. […] The peaks in the kymograph were counted and divided by the duration of the video to obtain the CBF value for the organoid. […]

[3] = test system: apical-out airway organoids (AOAOs); experiment: MUC5AC goblet cell immunofluorescence staining of apical-out airway organoids
Protocol: Differentiation of airway basal cells into apical-out airway organoids: Human ABSCs (P2) were trypsinized and resuspended (5000 cells/ml) in differentiation medium ([…]™-ALI Medium) supplemented with 10 μM Y27632. 100 μL of resuspended hABSCs were placed per well in a 96-well cell-repellent microplate (GreinerBio-One, 655970). The cultures were maintained at 37° C. with 5% CO2 for 21-28 days. […]

[4] = test system: NHBE cells; experiment: Spheroid formation of NHBEs on U-bottom cell repellent surface; conditions: 10 μM Y27632 in differentiation medium at initial seeding, day 1
Protocol: Mucociliary differentiation of NHBEs with apical-out polarity was then carried out. Once the cells reached about 75% confluency, the medium was aspirated and cells were rinsed once with DPBS. Trypsin-EDTA (0.25%) was added and incubated at 37° C. After all the cells had lifted, complete RPMI medium was added to neutralize the trypsin. The cell suspension was transferred into a 15 mL centrifuge tube, which was then centrifuged at 220×g for 5 minutes at room temperature. The cell pellet was resuspended to a cell density of 5000 cells/mL in differentiation medium containing 10 μM of Y27632. Aliquots (100 μL) of the cell suspension were then transferred to each well of a 96-well cell-repellent microplate. 50 μL of the media were pipetted out from each well and replaced with fresh differentiation medium every other day. Apical-out organoid formation was examined with different starting NHBE cell numbers (1000, 500, 200, 100, 50, and 20 cells per well) on a 96-well U-bottom cell repellent surface. Studies also were conducted to test whether the addition of 10 μM Y27632 into the differentiation medium for initial seeding improved cell viability and spheroid formation (FIGS. 3A-3F and 4A-4F). […] It is noted that in other experiments, however, a density of 1000 cells per well did support favorable spheroid formation.

## CC(=O)O[C@H]1C(=O)[C@@]2(C)[C@H]([C@H](OC(=O)c3ccccc3)[C@]3(O)C[C@H](OC(=O)[C@H](O)[C@@H](NC(=O)c4ccccc4)c4ccccc4)C(C)=C1C3(C)C)[C@]1(OC(C)=O)CO[C@@H]1C[C@@H]2O [paclitaxel, Paclitaxel]
[1]; paclitaxel 20 μM, monitored periodically for 24 hours
  organoid angular velocity over time: progressive reduction of organoid angular velocity
[2]; paclitaxel 20 μM, 24 hours
  cilia beating frequency (CBF): dramatically reduced CBF

## CCCCCC[C@@H]([C@@H](C)O)n1cnc2c(N)ncnc21 (racemic) [EHNA, erythro-9-(2-hydroxy-3-nonyl)adenine]
[1]; EHNA 0, 0.1, 0.3 and 1 mM, 2 hours, mature AOAOs
  change in organoid angular velocity: dose-dependent reduction in organoid angular velocity
[2]; 1 mM EHNA, 2 hours
  cilia beating frequency (CBF): inhibitory effect

## IL-13: pro-inflammatory cytokine interleukin-13
[3]; IL-13 5 ng/mL in differentiation medium during the entire differentiation
  goblet cells (MUC5AC+) in Day 21 AOAOs: massive induction of goblet cells
[3]; IL-13 at concentration as low as 1 ng/mL
  goblet cells (MUC5AC expression): exhibited goblet cells

## C[C@@H](N)[C@H]1CC[C@H](C(=O)Nc2ccncc2)CC1 [Y27632]
[4]
  spheroid formation with versus without Y27632: no significant differences
